The values below come from patent US10730885B1, “Coumarin derivatives” (KING SAUD UNIVERSITY, priority 2019, dated 2020).

In data set [1] the test system is trypsin. The data set can be described thus: Proteinase inhibitory activity (trypsin/casein). The data set is classed as biochemical. The note with it: for % Inhibition of proteinase activity: 250 μg/ml, mean ± SD (n = 3). Here is the method:
For proteinase inhibitory activity, the reaction mixture (2 ml) contained 0.06 mg trypsin, 20 mM Tris HCl buffer (pH 7.4) and 1 ml test sample (250 μg/ml for each compound). The mixture was incubated for 5 min and then 1 ml of 0.8% (w/v) casein was added. The mixture was incubated for an additional 20 min. 1 ml of 10% perchloric acid was added to arrest the reaction. The cloudy suspension was centrifuged, and the absorbance of the supernatant was read at 280 nm. Reference standard compound aspirin was used as the positive control for this assay. The experiment was performed in triplicate. Percentage inhibition of […] was calculated by using the following formula:
[formula] where Acontrol is the absorbance of the control reaction and Atest is the absorbance of the control reaction with sample.

Data set [2] can be described thus: DPPH microplate radical scavenging antioxidant assay. The data set is classed as biochemical. The note with it: for IC50: DPPH, 30 min, mean ± SD (n = 3); for antioxidant activity: overview. Here is the method: The antioxidant activity of the synthesized compounds was measured in terms of hydrogen-donating or radical scavenging ability using the DPPH microplate-based method. Absorbance measurement was obtained using Microplate/cuvette reader (Spectramax M5, Molecular Devices, California, USA). Reference standard compound ascorbic acid was used as the positive control for this assay at concentrations ranging from 1.563 to 200 μg/mL. Test samples were prepared at a starting concentration of 200 μg/mL after mixing with 100 μl of 0.2 mM DPPH methanolic solution. A series of concentrations were tested for the samples in order to determine the 50% inhibitory concentration (IC50). Samples were incubated with DPPH in the dark for 30 min at room temperature (25° C.). The DPPH solution in methanol was prepared daily and stored in a flask covered with aluminum foil. DPPH radicals have an absorption maximum (λmax) at 515 nm, in which the absorbance values were measured and converted into percentage of antioxidant activity.
Methanolic DPPH solution without antioxidant was applied as control and background control was samples in methanol only. IC50 was determined using Graphpad Prism 7 (Graphpad Software Inc. CA, USA). The percentage inhibition was calculated by using the formula:
The assay was carried out in triplicate and performed as much as possible in an area protected against light. The data points are presented as the mean±standard deviation (SD) (n=3).
In general terms: The DPPH test is a chemical assay of radical scavenging.

Data set [3] deals with Bacillus megaterium ATCC 9885. As to the kind of experiment: Agar well diffusion, primary antimicrobial screening. The data set is classed as cell-based. The note with it: Priestia megaterium, ATCC9885; B. megaterium ATCC 9885; 100 μL of 10 mg/ml in DMSO, 24 h; read-out: Inhibition Diameter Zone BM. An excerpt: (§1) The newly synthesized compounds were individually tested for their in vitro antimicrobial activity against the standard bacteria strains of American Type Culture Collection (ATCC), namely, Staphylococcus aureus ATCC 29213, Bacillus subtilis ATCC 6633, Bacillus megaterium ATCC 9885 (Gram-positive), Escherichia coli ATCC 2592 and Pseudomonas aeruginosa ATCC 27953 (Gram-negative). In addition, they were microbiologically tested against the locally isolated Saccharomyces cerevisiae (yeast) and the standard strain of Agricultural Research Service Culture Collection (NRRL) of the yeast like pathogenic fungus Candida albicans NRRL Y-477. The primary screening was carried out using the agar well diffusion method using nutrient agar (NA) medium and Sabourand dextrose agar (SDA) medium for pathological tested bacteria and yeast, respectively.
(§2) Antimicrobial tests were carried out by the agar well diffusion method using 100 μL of suspension containing 1×10^8 CFU/mL of pathological tested bacteria and 1×10^6 CFU/ml of yeast spread on NA and SDA, respectively. After the media was cooled and solidified, wells (10 mm in diameter) were made in the solidified agar and loaded with 100 μL of tested compound solution prepared by dissolving 10 mg of the chemical compound in one ml of dimethyl sulfoxide (DMSO). The inculcated plates were then incubated for 24 h at 37° C. for bacteria and yeast. Negative controls were prepared using DMSO employed for dissolving the tested compound. Ciprofloxacin (10 mg/ml) and ketoconazole (10 mg/ml) were used as standard for antibacterial and antifungal activity, respectively. After incubation time, antimicrobial activity was evaluated by measuring the zone of inhibition against the test organisms and compared with that of the standard. Antimicrobial activities were expressed as inhibition diameter zones in millimeters (mm). The experiment was carried out in triplicate and the average zone of inhibition was calculated.
Background: In agar diffusion tests the substance spreads into inoculated agar from a disc or well.

For data set [4], the system named is Bacillus subtilis ATCC 6633. The description is as above. The data set is classed as cell-based. The note with it: for zone of inhibition at 10000 µg/mL: Bacillus subtilis, ATCC6633, B. subtilis ATCC 6633, 100 μL of 10 mg/ml in DMSO, 24 h, read-out: Inhibition Diameter Zone BS; for antibacterial activity compared with reference drug: B. subtilis.
Excerpt: as §1, §2

The test system of data set [5] is Saccharomyces cerevisiae (local isolate). Described as above. The data set is classed as cell-based. The note with it: for zone of inhibition at 10000 µg/mL: Saccharomyces cerevisiae, 24 h, read-out: Inhibition Diameter Zone SC.
Excerpt: as §1, §2

The test system of data set [6] is Candida albicans NRRL Y-477. Described as above. The data set is classed as cell-based. The note with it: for zone of inhibition at 10000 µg/mL: Candida albicans, NRRLY477, C. albicans NRRL Y-477, 100 μL of 10 mg/ml in DMSO, 24 h, read-out: Inhibition Diameter Zone CA; for antifungal activity compared with reference drug: C. albicans.
Excerpt: as §1, §2

Data set [7] concerns Staphylococcus aureus ATCC 29213. Described as above. The data set is classed as cell-based. The note with it: S. aureus.
Excerpt: as §1, §2

The test system of data set [8] is tested microorganisms. As to the kind of experiment: Agar well diffusion, summary over the tested microorganisms. The data set is classed as cell-based. The note with it: against one or more microorganisms.
Excerpt: as §1, §2

The subject of data set [9] is Escherichia coli ATCC 2592. As to the kind of experiment: Agar well diffusion, primary antimicrobial screening. The data set is classed as cell-based. The note with it: E. coli.
Excerpt: as §1, §2

The mark [10] stands for this setting: S. cerevisiae local isolate, 100 μL of 10 mg/ml in DMSO.

Each structure is given as a SMILES string. Converted amounts (≈) assume the structure as drawn. Read-outs that look alike come from different tables or passages of the source.

Usually melting point stands for the temperature, or range, at which the solid turns liquid. For orientation: IC50 means the concentration needed to halve the response being measured. Higher therefore signals weaker potency in that assay. `Cc1ccc2oc(=O)c3c(c2c1)OC(N)=C(C(N)=O)C3c1ccco1` (racemic) [Compound 6b, (±)-2-amino-4-(furan-2-yl)-9-methyl-5-oxo-4H,5H-pyrano[3,2-c]chromene-3-carboxamide] had a melting point of 202 to 204 °C. Moreover, in data set [1], the “in vitro anti-proteinase activity compared with aspirin” value is given as “more potent”. Also, the “% Inhibition of proteinase activity” value in data set [1] (listed as 6h) turned out to be 49.28 ± 10.93%. The molecule further returned an IC50 in data set [2] of 48.38 ± 4.61 µg/mL (≈ 143 µM). In addition, in [3], the zone of inhibition at 10000 µg/mL was less than 15 mm. In [4], the zone of inhibition at 10000 µg/mL was less than 15 mm.

The molecule `Cc1ccc2oc(=O)c3c(c2c1)OC(N=CN(C)C)=C(C#N)C3c1ccco1` (racemic) [Compound 7b, (±)-N′-(3-cyano-4-(furan-2-yl)-9-methyl-5-oxo-4H,5H-pyrano[3,2-c]chromen-2-yl)-N,N-dimethylformimidamide] registered a melting point of 273 to 275 °C. Besides, in data set [1], the “% Inhibition of proteinase activity” value was found to be 33.17 ± 2.79%. For the same molecule, the IC50 entry in data set [2] is “— ((—): inactive (IC50 > 200 μg/mL))”. For the same molecule, in data set [5], the zone of inhibition at 10000 µg/mL is less than 15 mm. Moreover, in [3], the zone of inhibition at 10000 µg/mL was less than 15 mm. Further, the zone of inhibition at 10000 µg/mL in [6] is less than 15 mm. In addition, the zone of inhibition at 10000 µg/mL in data set [4] was less than 15 mm.

`Cc1ccc2oc(=O)c3c(c2c1)OC(N=Cc1ccccc1)=C(C#N)C3c1ccco1` (racemic) [Compound 8b, (±)-2-(benzylideneamino)-4-(furan-2-yl)-9-methyl-5-oxo-4H,5H-pyrano[3,2-c]chromene-3-carbonitrile] gave a melting point of 250 to 252 °C.

Consider `O=C1O[C@H]([C@@H](O)CO)C(O)=C1O` [Ascorbic acid, ascorbic acid, reference compound], for which the IC50 in data set [2] came to 2.83 ± 0.166 µg/mL (≈ 16.1 µM).

With `CC(=O)Oc1ccccc1C(=O)O` [Aspirin, aspirin, reference compound], the “% Inhibition of proteinase activity” value in [1] came out at 45.83 ± 4.21%.

Regarding `O=C(O)c1cn(C2CC2)c2cc(N3CCNCC3)c(F)cc2c1=O` [Ciprofloxacin, reference compound], the zone of inhibition at 10000 µg/mL in data set [5] (setting [10]) and in data set [6] was less than 15 mm in each case.

In the case of `NS(=O)(=O)c1ccc(NS(=O)(=O)c2c(O)c3cc(Cl)ccc3oc2=O)cc1` [Compound 10a, 6-Chloro-4-hydroxy-2-oxo-N-(4-sulfamoylphenyl)-2H-chromene-3-sulfonamide], the melting point was 245 to 247 °C. In data set [1], the “% Inhibition of proteinase activity” value worked out at 18.78 ± 2.05%. In addition, the IC50 in [2] stood at 93.12 ± 0.727 µg/mL (≈ 216 µM). In [7], the “antibacterial activity compared with ciprofloxacin” value is “equal to ciprofloxacin”. Moreover, in data set [4], the “antibacterial activity compared with reference drug” value was “comparable antibacterial activities to the standard”. Further, the “antimicrobial activity compared with standard antimicrobials (ciprofloxacin and ketoconazole)” value in data set [8] is reported as “equal to or higher than the standard antimicrobials”.

Take `O=c1oc2ccc(Cl)cc2c(O)c1S(=O)(=O)Nc1ccc(S(=O)(=O)Nc2nccs2)cc1` [Compound 10e, 6-chloro-4-hydroxy-2-oxo-N-(4-(N-(thiazol-2-yl)sulfamoyl)phenyl)-2H-chromene-3-sulfonamide]: the melting point is 215 to 217 °C. In data set [2], this molecule had an IC50 of 71.67 ± 3.231 µg/mL (≈ 139 µM).

In turn, `O=c1oc2ccc(Cl)cc2c(O)c1S(=O)(=O)Nc1ccccc1` [Compound 11a, 6-Chloro-4-hydroxy-2-oxo-N-phenyl-2H-chromene-3-sulfonamide] came in with a melting point of 337 to 339 °C. Moreover, in data set [1], the “in vitro anti-proteinase activity compared with aspirin” value is given as “as potent” and the “% Inhibition of proteinase activity” value came to 44.7 ± 8.22%. Also, in data set [2], the IC50 was 14.51 ± 1.827 µg/mL (≈ 41.2 µM) and the “antioxidant activity” value is “particularly high antioxidant activity”. Besides, the “antifungal activity compared with reference drug” value in data set [6] is “higher antifungal activity”. For the same molecule, the “antimicrobial activity compared with standard antimicrobials (ciprofloxacin and ketoconazole)” value in [8] was “equal to or higher than the standard antimicrobials”.

Turning to `Cc1ccc2oc(=O)c(S(=O)(=O)Nc3ccccc3)c(O)c2c1` [Compound 11b, 4-Hydroxy-6-methyl-2-oxo-N-phenyl-2H-chromene-3-sulfonamide], the melting point was in the range of 324 to 325 °C. The “% Inhibition of proteinase activity” value in [1] was determined as 14.3 ± 2.21%. Also, in data set [2], the IC50 stood at 19.25 ± 4.171 µg/mL (≈ 58.1 µM) and the “antioxidant activity” value was “particularly high antioxidant activity”.

Molecule `Cc1ccc2oc(=O)c(S(=O)(=O)Nc3ccc(C(=O)/C=C/c4ccc([N+](=O)[O-])cc4)cc3)c(O)c2c1` [Compound 12b, (E)-4-hydroxy-6-methyl-N-(4-(3-(4-nitrophenyl)acryloyl)phenyl)-2-oxo-2H-chromene-3-sulfonamide] showed a melting point of 220 to 222 °C. In [2], the IC50 entry was “— ((—): inactive (IC50 > 200 μg/mL))”.

Molecule `Cc1ccc2oc(=O)c(S(=O)(=O)Nc3ccc(C(=O)/C=C/c4ccc(Cl)cc4)cc3)c(O)c2c1` [Compound 12d, (E)-N-(4-(3-(4-chlorophenyl)acryloyl)phenyl)-4-hydroxy-6-methyl-2-oxo-2H-chromene-3-sulfonamide] yielded a melting point of 141 to 143 °C. For the same molecule, the “% Inhibition of proteinase activity” value in data set [1] came to 31.88 ± 3.82%. Also, the IC50 result in data set [2] was “— ((—): inactive (IC50 > 200 μg/mL))”. For the same molecule, the “antimicrobial activity compared with ketoconazole” value in [5] (S. cerevisiae) is recorded as “higher than that of the corresponding control drug”. Also, the zone of inhibition at 10000 µg/mL in data set [5] (setting [10]) worked out at 32 mm. The “antibacterial activity compared with ciprofloxacin” value in [9] is “higher antibacterial activity than ciprofloxacin”. The “antifungal activity compared with reference drug” value in data set [6] is listed as “higher antifungal activity”. The “antibacterial activity compared with ciprofloxacin” value in [7] was “equal to ciprofloxacin”. For the same molecule, the “antibacterial activity compared with reference drug” value in [4] is reported as “comparable antibacterial activities to the standard”. The “antimicrobial activity compared with standard antimicrobials (ciprofloxacin and ketoconazole)” value in data set [8] is “equal to or higher than the standard antimicrobials”.

Turning to `COc1ccc(/C=C/C(=O)c2ccc(NS(=O)(=O)c3c(O)c4cc(Cl)ccc4oc3=O)cc2)cc1` [Compound 12e, (E)-6-chloro-4-hydroxy-N-(4-(3-(4-methoxyphenyl)acryloyl)phenyl)-2-oxo-2H-chromene-3-sulfonamide], the melting point was greater than 300 °C. Besides, the “% Inhibition of proteinase activity” value in data set [1] is reported as 22.83 ± 4.88%. Besides, the IC50 entry in data set [2] was “— ((—): inactive (IC50 > 200 μg/mL))”.

Turning to `COc1ccc(/C=C/C(=O)c2ccc(NS(=O)(=O)c3c(O)c4cc(C)ccc4oc3=O)cc2)cc1` [Compound 12f, (E)-4-hydroxy-N-(4-(3-(4-methoxyphenyl)acryloyl)phenyl)-6-methyl-2-oxo-2H-chromene-3-sulfonamide], the melting point was greater than 300 °C. Besides, in data set [1], the “% Inhibition of proteinase activity” value turned out to be 21.7 ± 7.6%. For the same molecule, the IC50 result in [2] is “— ((—): inactive (IC50 > 200 μg/mL))”.
